Laboratory results reported in US4999372A, “New aminochromanol compounds” (ADIR et Compagnie, priority 1988, dated 1991).
Where two headings read alike, the source gives them in different places. Values belong to the compound of their own block, whether it stands above or below them.

Tests used:
aorta of the rat = assay: Relaxation of rat aortic rings contracted by potassium depolarisation (KCl); format: cell-based; conditions: Rattus norvegicus, rat aorta rings without endothelium
Experimental: Male Wistar rats (325-375 g) are anaesthetised i.p. using sodium pentobarbital (30 mg/kg). The thoracic aorta and the mesenteric portal vein are removed. The aorta is dissected into rings 3 mm long and the endothelium is removed mechanically.
The organs are placed in a 20 ml thermostatically controlled vessel containing a physiological solution composed of (mM): NaCl 112; KCl 5; KH2 PO4 1; MgSO4 1.2; CaCl2 2.5; NaHCO3 25; glucose 11.5; EDTA 0.1; pH: 7.4; 37° C.; 95% O2 +5% CO2.
The initial force applied is 2 g in the case of the aorta and 0.5 g in the case of the portal vein. The variations in force are measured by a STATHAM sensor connected to a transducer amplifier (GOULD) and are monitored continuously on a GOULD 2400 graphic recorder.
The experimental protocols are as follows: After a stabilisation period of 90 minutes, the aortic rings are subjected to various tests:
potassium depolarisation:
The preparations are exposed to a 30 mM or 80 mM KCl (and 87 and 37 mM NaCl, respectively) hyperpotassium medium; after 30 minutes' stabilisation of contraction, cumulative concentrations of the product to be tested are added every 15 minutes. The relaxation values obtained allow the IC50 s to be calculated.
The products are used in a form dissolved in water or a suitable solvent.
The concentrations expressed refer to the final concentrations in terms of base in the isolated organ baths.

[1] = system: spontaneously hypertensive rat (SHR); assay: Arterial pressure in the conscious spontaneously hypertensive rat (SHR), oral; format: in vivo
Experimental: The study is carried out on SHR male rats (Charles River) weighing from 260 g to 330 g and aged from 18 to 20 weeks. A polyethylene catheter is positioned at the level of the abdominal aorta and tunnelised at the level of the neck under anaesthesia (ketamine hydrochloride 150 mg/kg intraperitoneally). The animals, placed in movement-restraining cages, are tested in the conscious state at least 48 hours after intervention. The arterial pressure, measured by a STATHAM P23 pressure sensor connected to the abdominal catheter, is registered on a GOULD 2400 recorder. […] The doses administered are expressed in mg/kg of base.
The results obtained with a certain number of representative products of the invention and a reference product, CROMAKALIM, are grouped in the following Table. The variations in systolic and diastolic arterial pressure (PAS and PAD) presented at the most significant times after treatment are expressed as percentage variation with respect to the control values.

[2] = system: conscious renally hypertensive dog; assay: Arterial pressure in the conscious renally hypertensive dog; format: in vivo; conditions: gastric intubation, 0.1 mg/kg
Experimental: Mongrel dogs weighing from 20 to 25 kg are used. A silastic catheter positioned under anaesthesia (sodium pentobarbital 30 mg/kg i.v.) at the level of the abdominal aorta and left over a prolonged period permits the later measurement of the arterial pressure in the conscious animals. Arterial hypertension is induced by a second intervention under anaesthesia consisting in a constriction of the left renal artery using a clip, which reduces its rate of flow by approximately 70%, the left kidney is enveloped in a latex capsule and the contralateral kidney is left in place.
The systolic and diastolic arterial pressures (PAS and PAD) are measured using a STATHAM P23 pressure sensor connected to the silastic catheter and linked to a GOULD pressure amplifier. The products are tested on the animals, which have become hypertensive, in the conscious state, at least one week after the second intervention. The arterial pressure is monitored continuously on an ES1000 GOULD recorder until 7 hours have elapsed after the treatment and then until 24 hours have elapsed.
The products to be tested are administered via the digestive system, after gastric intubation, in a form dissolved in water or a suitable solvent. The doses administered are expressed in mg of base with respect to body weight.
The representative products of the invention were compared with the reference product (CROMAKALIM). The variations in the systolic and diastolic arterial pressures (PAS and PAD), presented at the most significant times after treatment, are expressed as percentage variation with respect to the control values.

anaesthetised dog = assay: Haemodynamic study in the anaesthetised dog (vascular resistances), i.v.; format: in vivo
Experimental: A complete haemodynamic study was carried out on mongrel dogs weighing from 25 to 30 kg, which were anaesthetised with sodium pentobarbital 30 mg/kg i.v., intubated and ventilated and subjected to a thoracotomy at the 5th left intercostal space. The measurement of the […] is carried out using electromagnetic rings positioned at the level of the ascending aorta and the circumflex branch of the left coronary artery, respectively, and connected to GOULD SP 2202 electromagnetic flow meters. The aortic pressure is measured by a MILLAR probe introduced via the femoral artery.
The total peripheral vascular resistance values (TPR) and the mean coronary vascular resistance values (CVRM) are calculated by the ratio between the mean aortic pressure and the mean cardiac output and the mean coronary output, respectively. The products tested were injected via the femoral vein in a form dissolved in water or a suitable solvent.
The evolution of the vascular resistances, expressed as percentage variation with respect to the control values, is presented as a function of time in the following Table.

guinea pig = assay: Bronchospasm produced by a histamine aerosol at 4%, compound i.v.; format: in vivo; conditions: 0.35 mg/kg i.v.
Experimental: The bronchodilating activity has been studied in the guinea pig by the method of H. KONZETT and R. ROSSLER, Arch. Exp. Path. U. Pharm. 195, 71 (1940).
For example, the bronchospasm produced in the guinea pig by a histamine aerosol et 4% is inhibited of 96% by the compound of Example 1 B form, at the dose of 0.30 mg/kg i.v., and of 100% by the compound of Example 24 B form, at the dose of 0.35 mg/kg i.v.

IC50 (aorta of the rat; 30 mM KCl, read-out: IC50 (M) KCl 30 mM): 2.8e-07 M
IC50 (aorta of the rat; 80 mM KCl, read-out: IC50 (M) KCl 80 mM): > 0.0001 M
Compound: COC[C@@H]1CCC(=O)N1C1c2cc(C#N)ccc2OC(C)(C)C1O (single isomer, unassigned) [Example 2 form A, 3S,4R- or 3R,4S-trans-2,2-dimethyl-3-hydroxy-4-(2-oxo-5S-methoxymethyl-1-pyrrolidinyl)-6-cyanochroman]
Variation (%) of PAD after treatment ([1]; 1.0 mg/kg, 1 H): -21 ± 4%
Variation (%) of PAS after treatment ([1]; 1.0 mg/kg, 1 H): -16 ± 3%
Variation (%) of PAD after treatment ([1]; 1.0 mg/kg, 3 H): -19 ± 3%
Variation (%) of PAS after treatment ([1]; 1.0 mg/kg, 3 H): -12 ± 3%
Variation (%) of PAD after treatment ([1]; 1.0 mg/kg, 6 H): -14 ± 2%
Variation (%) of PAS after treatment ([1]; 1.0 mg/kg, 6 H): -9 ± 2%
Variation (%) of PAD after treatment ([1]; 1.0 mg/kg, 30 min): -17 ± 3%
Variation (%) of PAS after treatment ([1]; 1.0 mg/kg, 30 min): -11 ± 2%
Variation (%) of PAD after treatment ([1]; 3.0 mg/kg, 1 H): -36 ± 3%
Variation (%) of PAS after treatment ([1]; 3.0 mg/kg, 1 H): -26 ± 2%
Variation (%) of PAD after treatment ([1]; 3.0 mg/kg, 3 H): -31 ± 3%
Variation (%) of PAS after treatment ([1]; 3.0 mg/kg, 3 H): -25 ± 3%
Variation (%) of PAD after treatment ([1]; 3.0 mg/kg, 6 H): -27 ± 3%
Variation (%) of PAS after treatment ([1]; 3.0 mg/kg, 6 H): -21 ± 3%
Variation (%) of PAD after treatment ([1]; 3.0 mg/kg, 30 min): -35 ± 3%
Variation (%) of PAS after treatment ([1]; 3.0 mg/kg, 30 min): -24 ± 1%
Variation (%) of PAD after treatment ([2]; 1 H): -20%
Variation (%) of PAS after treatment ([2]; 1 H): -12%
Variation (%) of PAD after treatment ([2]; 3 H): -32%
Variation (%) of PAS after treatment ([2]; 3 H): -28%
Variation (%) of PAD after treatment ([2]; 7 H): -44%
Variation (%) of PAS after treatment ([2]; 7 H): -41%
Variation (%) of PAD after treatment ([2]; 24 H): 0%
Variation (%) of PAS after treatment ([2]; 24 H): -2%
Variation (%) of PAD after treatment ([2]; 30 min): -14%
Variation (%) of PAS after treatment ([2]; 30 min): -2%
Variation (%) of CVRM after treatment (anaesthetised dog; 30 μg/kg, 1 min): -28.9%
Variation (%) of TPR after treatment (anaesthetised dog; 30 μg/kg, 1 min): -9.8%
Variation (%) of CVRM after treatment (anaesthetised dog; 30 μg/kg, 10 min): -20.2%
Variation (%) of TPR after treatment (anaesthetised dog; 30 μg/kg, 10 min): -11.8%
Variation (%) of CVRM after treatment (anaesthetised dog; 30 μg/kg, 30 min): -22.1%
Variation (%) of TPR after treatment (anaesthetised dog; 30 μg/kg, 30 min): -11.8%
Variation (%) of CVRM after treatment (anaesthetised dog; 100 μg/kg, 1 min): -54.7%
Variation (%) of TPR after treatment (anaesthetised dog; 100 μg/kg, 1 min): -15.8%
Variation (%) of CVRM after treatment (anaesthetised dog; 100 μg/kg, 10 min): -56.1%
Variation (%) of TPR after treatment (anaesthetised dog; 100 μg/kg, 10 min): -14.7%
Variation (%) of CVRM after treatment (anaesthetised dog; 100 μg/kg, 30 min): -50.5%
Variation (%) of TPR after treatment (anaesthetised dog; 100 μg/kg, 30 min): -12.6%

Compound: CN(C)C[C@@H]1CCC(=O)N1C1c2cc(C#N)ccc2OC(C)(C)C1O (single isomer, unassigned) [Example 3 form A, 3R,4S- or 3S,4R-trans-2,2-dimethyl-3-hydroxy-4-(2-oxo-5S-dimethylaminomethyl-1-pyrrolidinyl)-6-cyanochroman]
Variation (%) of CVRM after treatment (anaesthetised dog; 3000 μg/kg, 1 min): +2.5%
Variation (%) of TPR after treatment (anaesthetised dog; 3000 μg/kg, 1 min): +1.7%
Variation (%) of CVRM after treatment (anaesthetised dog; 3000 μg/kg, 10 min): -38.5%
Variation (%) of TPR after treatment (anaesthetised dog; 3000 μg/kg, 10 min): -6.8%
Variation (%) of CVRM after treatment (anaesthetised dog; 3000 μg/kg, 30 min): -49.0%
Variation (%) of TPR after treatment (anaesthetised dog; 3000 μg/kg, 30 min): -8.5%

Compound: COC(=O)c1ccc2c(c1)C(N1C(=O)CCC1CO)C(O)C(C)(C)O2 (single isomer, unassigned) [Example 24 B form]
Inhibition of the bronchospasm produced by a histamine aerosol at 4% (guinea pig): 100%
